Test results: ChEMBL document CHEMBL3616440, “Non-basic azolotriazinone MCHR1 antagonists for the treatment of obesity: An empirical brain-exposures-driven candidate selection for in vivo efficacy studies” (Bioorg Med Chem Lett, 2015)

Key:
[1] = target: T1, Melanin-concentrating hormone receptor 1 (Homo sapiens, UniProt Q99705); test: Displacement of [125I][Phe13,Tyr19]-MCH from human MCHR1 expressed in HEK293 cells by scintillation counting analysis; type: cell-based
[2] = target: Melanin-concentrating hormone receptor 1 (Rattus norvegicus, UniProt P97639); test: Displacement of [125I][Phe13,Tyr19]-MCH from rat MCHR1 by scintillation counting analysis
Melanin-concentrating hormone receptor 1 (Rattus norvegicus, UniProt P97639), sequence (P97639 whole entry): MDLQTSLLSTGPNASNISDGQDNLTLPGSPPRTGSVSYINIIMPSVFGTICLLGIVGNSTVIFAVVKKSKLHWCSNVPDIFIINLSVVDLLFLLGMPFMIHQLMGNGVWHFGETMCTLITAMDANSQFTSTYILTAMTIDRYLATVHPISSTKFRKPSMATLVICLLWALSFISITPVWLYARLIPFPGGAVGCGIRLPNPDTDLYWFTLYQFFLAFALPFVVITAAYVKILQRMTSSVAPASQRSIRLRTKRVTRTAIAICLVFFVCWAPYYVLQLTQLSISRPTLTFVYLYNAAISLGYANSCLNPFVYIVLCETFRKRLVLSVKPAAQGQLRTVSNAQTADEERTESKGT

[3] = target: hERG (KCNH2) (Homo sapiens, UniProt Q12809); test: Inhibition of human ERG at 1 uM by flux assay
hERG (KCNH2), sequence (Q12809 whole entry): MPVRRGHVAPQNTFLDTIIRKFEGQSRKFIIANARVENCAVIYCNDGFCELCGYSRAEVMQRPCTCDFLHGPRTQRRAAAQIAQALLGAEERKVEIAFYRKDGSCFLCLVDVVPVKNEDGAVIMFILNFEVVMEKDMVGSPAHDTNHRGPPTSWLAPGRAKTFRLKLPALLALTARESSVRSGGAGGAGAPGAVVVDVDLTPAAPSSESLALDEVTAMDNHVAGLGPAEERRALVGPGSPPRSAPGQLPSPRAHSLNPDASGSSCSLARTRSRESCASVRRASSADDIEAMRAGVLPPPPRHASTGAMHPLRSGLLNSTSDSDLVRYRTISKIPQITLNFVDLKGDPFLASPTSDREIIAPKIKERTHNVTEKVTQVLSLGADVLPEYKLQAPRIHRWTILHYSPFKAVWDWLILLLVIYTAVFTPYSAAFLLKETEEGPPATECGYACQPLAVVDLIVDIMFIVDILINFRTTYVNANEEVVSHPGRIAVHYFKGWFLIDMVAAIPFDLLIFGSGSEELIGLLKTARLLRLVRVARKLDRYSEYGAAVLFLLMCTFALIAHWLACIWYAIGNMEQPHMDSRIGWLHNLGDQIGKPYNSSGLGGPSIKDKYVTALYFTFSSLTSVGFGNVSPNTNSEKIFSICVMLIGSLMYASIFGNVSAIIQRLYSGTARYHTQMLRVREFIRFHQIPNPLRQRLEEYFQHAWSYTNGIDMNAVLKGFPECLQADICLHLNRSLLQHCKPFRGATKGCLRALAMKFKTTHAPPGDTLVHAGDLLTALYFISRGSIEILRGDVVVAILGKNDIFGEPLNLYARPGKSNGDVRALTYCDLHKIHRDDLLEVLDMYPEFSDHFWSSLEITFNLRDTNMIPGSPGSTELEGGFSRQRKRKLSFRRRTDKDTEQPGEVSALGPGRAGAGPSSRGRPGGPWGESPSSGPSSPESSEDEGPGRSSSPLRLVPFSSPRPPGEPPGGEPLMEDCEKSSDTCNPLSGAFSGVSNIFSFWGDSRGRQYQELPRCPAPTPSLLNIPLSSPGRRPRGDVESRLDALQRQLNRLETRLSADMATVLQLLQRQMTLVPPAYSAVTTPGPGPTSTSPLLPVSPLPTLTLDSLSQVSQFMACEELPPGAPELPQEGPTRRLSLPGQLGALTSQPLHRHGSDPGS

[4] = target: T1, Melanin-concentrating hormone receptor 1; test: Antagonist activity at human MCHR1 expressed in HEK293 cells assessed as inhibition of MCH-induced Ca2+ influx for 120 mins by FLIPR assay; type: functional, cell-based
[5] = target: T2, Voltage-gated inwardly rectifying potassium channel KCNH2 (Homo sapiens, UniProt Q12809); test: Inhibition of human ERG by flux assay
T2 sequence (Q12809 whole entry): as above

[6] = system: Plasma; test: Plasma concentration in Sprague-Dawley rat assessed as 6-(4-chlorophenyl)-3-(4-((3S,4R)-3,4-dihydroxypyrrolidin-1-yl)-3-methoxyphenyl)pyrrolo[1,2-f][1,2,4]triazin-4(3H)-one level at 10 mg/kg, po qd at 8 hrs; type: ADME, organism-based; conditions: in vivo
[7] = system: Brain; test: Drug concentration in Sprague-Dawley rat brain assessed as 6-(4-chlorophenyl)-3-(4-((3S,4R)-3,4-dihydroxypyrrolidin-1-yl)-3-methoxyphenyl)pyrrolo[1,2-f][1,2,4]triazin-4(3H)-one level at 10 mg/kg, po qd at 8 hrs; type: ADME, organism-based; conditions: in vivo, read-out: Drug uptake
[8] = system: Nucleic Acid; test: Ratio of drug level in Sprague-Dawley rat brain to plasma assessed as 6-(4-chlorophenyl)-3-(4-((3S,4R)-3,4-dihydroxypyrrolidin-1-yl)-3-methoxyphenyl)pyrrolo[1,2-f][1,2,4]triazin-4(3H)-one level at 10 mg/kg, po qd; type: ADME, organism-based
[9] = system: Liver; test: Drug level in oral-dosed Sprague-Dawley rat liver treated with (2S)-1-(4-(6-(4-chlorophenyl)-4-oxopyrrolo[1,2-f][1,2,4]triazin-3(4H)-yl)-2-methoxyphenoxy)propan-2-yl 2-amino-3-methylbutanoate; type: ADME, tissue-based; conditions: in vivo
[10] = system: Plasma; test: Plasma concentration in Sprague-Dawley rat assessed as 6-(5-chloropyridin-2-yl)-3-(4-(2-cyclopropyl-2-hydroxyethoxy)-3-methoxyphenyl)pyrrolo[1,2-f][1,2,4]triazin-4(3H)-one level at 10 mg/kg, po qd at 8 hrs; type: ADME, organism-based; conditions: in vivo
[11] = system: Brain; test: Drug concentration in Sprague-Dawley rat brain assessed as 6-(5-chloropyridin-2-yl)-3-(4-(2-cyclopropyl-2-hydroxyethoxy)-3-methoxyphenyl)pyrrolo[1,2-f][1,2,4]triazin-4(3H)-one level at 10 mg/kg, po qd at 8 hrs; type: ADME, organism-based; conditions: in vivo, read-out: Drug uptake
[12] = system: Nucleic Acid; test: Ratio of drug level in Sprague-Dawley rat brain to plasma assessed as 6-(5-chloropyridin-2-yl)-3-(4-(2-cyclopropyl-2-hydroxyethoxy)-3-methoxyphenyl)pyrrolo[1,2-f][1,2,4]triazin-4(3H)-one level at 10 mg/kg, po qd; type: ADME, organism-based
[13] = system: Plasma; test: Plasma concentration in Sprague-Dawley rat assessed as (R)-6-(5-chloropyridin-2-yl)-3-(4-(2-cyclopropyl-2-hydroxyethoxy)-3-methoxyphenyl)pyrrolo[1,2-f][1,2,4]triazin-4(3H)-one level at 10 mg/kg, po qd at 8 hrs; type: ADME, organism-based; conditions: in vivo
[14] = system: Brain; test: Drug concentration in Sprague-Dawley rat brain assessed as (R)-6-(5-chloropyridin-2-yl)-3-(4-(2-cyclopropyl-2-hydroxyethoxy)-3-methoxyphenyl)pyrrolo[1,2-f][1,2,4]triazin-4(3H)-one level at 10 mg/kg, po qd at 8 hrs; type: ADME, organism-based; conditions: in vivo, read-out: Drug uptake
[15] = system: Nucleic Acid; test: Ratio of drug level in Sprague-Dawley rat brain to plasma assessed as (R)-6-(5-chloropyridin-2-yl)-3-(4-(2-cyclopropyl-2-hydroxyethoxy)-3-methoxyphenyl)pyrrolo[1,2-f][1,2,4]triazin-4(3H)-one level at 10 mg/kg, po qd; type: ADME, organism-based
[16] = system: Rattus norvegicus; test: Drug level in oral-dosed Sprague-Dawley rat treated with 1-(4-(6-(4-chlorophenyl)-4-oxothieno[3,2-d]pyrimidin-3(4H)-yl)-2-methoxyphenoxy)-2-methylpropan-2-yl 2-aminoacetate; type: ADME, organism-based; conditions: in vivo
[17] = system: Plasma; test: Plasma concentration in Sprague-Dawley rat assessed as 6-(4-chlorophenyl)-3-(4-((3,3-difluoro-1-hydroxycyclobutyl)methoxy)-3-methoxyphenyl)pyrrolo[1,2-f][1,2,4]triazin-4(3H)-one level at 10 mg/kg, po qd at 8 hrs; type: ADME, organism-based; conditions: in vivo
[18] = system: Brain; test: Drug concentration in Sprague-Dawley rat brain assessed as 6-(4-chlorophenyl)-3-(4-((3,3-difluoro-1-hydroxycyclobutyl)methoxy)-3-methoxyphenyl)pyrrolo[1,2-f][1,2,4]triazin-4(3H)-one level at 10 mg/kg, po qd at 8 hrs; type: ADME, organism-based; conditions: in vivo, read-out: Drug uptake
[19] = system: Nucleic Acid; test: Ratio of drug level in Sprague-Dawley rat brain to plasma assessed as 6-(4-chlorophenyl)-3-(4-((3,3-difluoro-1-hydroxycyclobutyl)methoxy)-3-methoxyphenyl)pyrrolo[1,2-f][1,2,4]triazin-4(3H)-one level at 10 mg/kg, po qd; type: ADME, organism-based
[20] = system: Plasma; test: Plasma concentration in Sprague-Dawley rat assessed as (R)-6-(4-chlorophenyl)-3-(4-(3-hydroxypyrrolidin-1-yl)-3-methoxyphenyl)pyrrolo[1,2-f][1,2,4]triazin-4(3H)-one level at 10 mg/kg, po qd at 8 hrs; type: ADME, organism-based; conditions: in vivo
[21] = system: Brain; test: Drug concentration in Sprague-Dawley rat brain assessed as (R)-6-(4-chlorophenyl)-3-(4-(3-hydroxypyrrolidin-1-yl)-3-methoxyphenyl)pyrrolo[1,2-f][1,2,4]triazin-4(3H)-one level at 10 mg/kg, po qd at 8 hrs; type: ADME, organism-based; conditions: in vivo, read-out: Drug uptake
[22] = system: Nucleic Acid; test: Ratio of drug level in Sprague-Dawley rat brain to plasma assessed as (R)-6-(4-chlorophenyl)-3-(4-(3-hydroxypyrrolidin-1-yl)-3-methoxyphenyl)pyrrolo[1,2-f][1,2,4]triazin-4(3H)-one level at 10 mg/kg, po qd; type: ADME, organism-based
[23] = target: T2, Voltage-gated inwardly rectifying potassium channel KCNH2; test: Inhibition of human ERG expressed in CHO cells assessed as channel current by Q-patch electrophysiological assay; type: cell-based
[24] = system: Plasma; test: Plasma concentration in Sprague-Dawley rat assessed as (S)-6-(4-chlorophenyl)-3-(4-(3-(ethylsulfonyl)-2-hydroxypropoxy)-3-methoxyphenyl)pyrrolo[1,2-f][1,2,4]triazin-4(3H)-one level at 10 mg/kg, po qd at 8 hrs; type: ADME, organism-based; conditions: in vivo
[25] = system: Brain; test: Drug concentration in Sprague-Dawley rat brain assessed as (S)-6-(4-chlorophenyl)-3-(4-(3-(ethylsulfonyl)-2-hydroxypropoxy)-3-methoxyphenyl)pyrrolo[1,2-f][1,2,4]triazin-4(3H)-one level at 10 mg/kg, po qd at 8 hrs; type: ADME, organism-based; conditions: in vivo, read-out: Drug uptake
[26] = system: Nucleic Acid; test: Ratio of drug level in Sprague-Dawley rat brain to plasma assessed as (S)-6-(4-chlorophenyl)-3-(4-(3-(ethylsulfonyl)-2-hydroxypropoxy)-3-methoxyphenyl)pyrrolo[1,2-f][1,2,4]triazin-4(3H)-one level at 10 mg/kg, po qd; type: ADME, organism-based

T1 sequence (Q99705 whole entry): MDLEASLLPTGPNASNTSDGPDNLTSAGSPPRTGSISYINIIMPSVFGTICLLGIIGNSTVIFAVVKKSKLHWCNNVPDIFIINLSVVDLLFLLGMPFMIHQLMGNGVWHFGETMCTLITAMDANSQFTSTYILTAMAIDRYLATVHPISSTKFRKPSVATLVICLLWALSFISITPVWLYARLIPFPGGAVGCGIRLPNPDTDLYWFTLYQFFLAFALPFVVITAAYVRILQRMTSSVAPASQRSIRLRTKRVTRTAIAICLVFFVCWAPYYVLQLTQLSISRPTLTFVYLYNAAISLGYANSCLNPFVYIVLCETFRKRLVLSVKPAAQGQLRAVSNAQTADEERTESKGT

| Ki [1] [nM] | Ki [2] [nM] | Structure (SMILES) | also measured |
| --- | --- | --- | --- |
| 124 | 54 | O=c1c2cc(-c3ccc(Cl)cn3)cn2ncn1-c1ccc(N2CC[C@@H](O)C2)nc1 |  |
| 9 | 7.9 | COc1cc(-n2cnn3cc(-c4ncc(Cl)cn4)cc3c2=O)ccc1OCC1(O)CC(F)(F)C1 |  |
| 0.4 | 0.3 | CNC1CCN(c2ccc(-n3cnn4cc(-c5ccc(Cl)cc5)cc4c3=O)cn2)C1 (centres undefined) |  |
| 5.3 | 5.5 | O=c1c2cc(-c3ccc(Cl)cc3)cn2ncn1-c1ccc(N2CC[C@@H](O)C2)nc1 | inhibition at 1 µM [3]: 26% |
| 86 | 106 | COc1ccc(-n2cnn3nc(-c4ccc(Cl)cc4)cc3c2=O)cc1OC |  |
| 3.1 | 2.3 | COc1cc(-n2cnn3cc(-c4ccc(Cl)cc4)cc3c2=O)ccc1N1C[C@@H](O)[C@@H](O)C1 | IC50 [4]: 5000 nM |
| 15 | 14 | O=c1c2cc(-c3ccc(Cl)cc3)cn2ncn1-c1ccc(N2CC(O)C2)nc1 | IC50 [5]: 3300 nM |
|  |  | COc1cc(-n2cnn3cc(-c4ccc(Cl)cc4)cc3c2=O)ccc1N1C[C@H](OC(=O)[C@@H](N)C(C)C)[C@H](OC(=O)[C@@H](N)C(C)C)C1 | concentration [6]: 272 nM; concentration [7]: 210 nM; BPR [8]: 0.77 |
| 13 | 15 | COc1cc(-n2cnn3cc(-c4ncc(Cl)cn4)cc3c2=O)ccc1OCC(C)(C)O |  |
|  |  | COc1cc(-n2cnn3cc(-c4ccc(Cl)cc4)cc3c2=O)ccc1OCC(O)CO (centres undefined) | Drug metabolism [9]: metabolite_detected |
|  |  | COc1cc(-n2cnn3cc(-c4ccc(Cl)cn4)cc3c2=O)ccc1OCC(OC(=O)[C@@H](N)C(C)C)C1CC1 (some centres undefined) | concentration [10]: 10200 nM; concentration [11]: 2040 nM; BPR [12]: 0.2 |
|  |  | COc1cc(-n2cnn3cc(-c4ccc(Cl)cn4)cc3c2=O)ccc1OC[C@H](OC(=O)CN)C1CC1 | concentration [13]: 7450 nM; concentration [14]: 1150 nM; BPR [15]: 0.2 |
|  |  | COc1cc(-n2cnc3cc(-c4ccc(Cl)cc4)sc3c2=O)ccc1OCC(C)(O)CO (centres undefined) | Drug metabolism [16]: metabolite_detected |
| 15 | 8.7 | CCS(=O)(=O)C[C@@H](O)COc1ccc(-n2cnn3cc(-c4ccc(Cl)cn4)cc3c2=O)cc1OC |  |
|  |  | COc1cc(-n2cnn3cc(-c4ccc(Cl)cc4)cc3c2=O)ccc1OCC1(OC(=O)CN)CC(F)(F)C1 | concentration [17]: 477 nM; concentration [18]: 2380 nM; BPR [19]: 0.6 |
| 13 | 12 | COc1cc(-n2cnn3cc(-c4ccc(Cl)cn4)cc3c2=O)ccc1OCC(O)C1CC1 (centres undefined) |  |
| 3.5 |  | COc1cc(-n2cnn3cc(-c4ccc(Cl)cc4)cc3c2=O)ccc1OCC(O)C1CC1 (centres undefined) | IC50 [4]: 300 nM |
| 21 | 8 | COc1ccc(-n2cnn3cc(-c4ccc(Cl)cc4)cc3c2=O)cc1OC |  |
|  |  | COc1cc(-n2cnn3cc(-c4ccc(Cl)cc4)cc3c2=O)ccc1N1CC[C@@H](OC(=O)[C@@H](N)C(C)C)C1 | concentration [20]: 339 nM; concentration [21]: 966 nM; BPR [22]: 2.9 |
| 4.4 | 2.6 | COc1cc(-n2cnn3cc(-c4ccc(Cl)cc4)nc3c2=O)ccc1OCCN1CCCC1 |  |

| Ki [1] [nM] | Ki [2] [nM] | Structure (SMILES) | also measured |
| --- | --- | --- | --- |
| 0.5 | 0.4 | COc1cc(-n2cnn3cc(-c4ccc(Cl)cc4)cc3c2=O)ccc1OCCN1CCCC1 | IC50 [5]: 5500 nM |
| 6.5 | 12 | COc1cc(-n2cnn3cc(-c4ccc(Cl)cn4)cc3c2=O)ccc1OC[C@H](O)C1CC1 |  |
| 2.3 | 1.8 | COc1cc(-n2cnn3cc(-c4ccc(Cl)cc4)cc3c2=O)ccc1OCC(C)(C)O | IC50 [4]: 44 nM |
| 76 | 87 | COc1ccc(-n2cnn3cc(-c4ccc(Cl)cc4)nc3c2=O)cc1OC |  |
|  |  | COc1cc(-n2cnn3cc(-c4ccc(Cl)cc4)cc3c2=O)ccc1OCC(O)C(=O)O (centres undefined) | Drug metabolism [9]: metabolite_detected |
| 28 | 23 | CCS(=O)(=O)C[C@@H](O)COc1ccc(-n2cnn3cc(-c4ncc(Cl)cn4)cc3c2=O)cc1OC |  |
|  |  | COc1cc(-n2cnc3cc(-c4ccc(Cl)cc4)sc3c2=O)ccc1OCC(C)(O)C(=O)O (centres undefined) | Drug metabolism [16]: metabolite_detected |
| 4.8 | 4.7 | COc1cc(-n2cnn3cc(-c4ccc(Cl)cc4)cc3c2=O)ccc1N1CC[C@@H](O)C1 |  |
| 12 | 18 | O=c1c2cc(-c3ccc(Cl)cc3)cn2ncn1-c1ccc(N2CCC(O)CC2)nc1 | IC50 [23]: > 10000 nM; IC50 [5]: > 80000 nM |
| 2.4 | 1.5 | CCS(=O)(=O)C[C@@H](O)COc1ccc(-n2cnn3cc(-c4ccc(Cl)cc4)cc3c2=O)cc1OC |  |
| 0.8 | 1.4 | O=c1c2cc(-c3ccc(Cl)cc3)cn2ncn1-c1ccc(N2CCC(N3CC(O)C3)C2)nc1 (centres undefined) | IC50 [5]: 2000 nM |
| 0.7 | 0.5 | COc1cc(-n2cnn3nc(-c4ccc(Cl)cc4)cc3c2=O)ccc1OCCN1CCCC1 |  |
| 3.4 | 3.8 | COc1cc(-n2cnn3cc(-c4ccc(Cl)cc4)cc3c2=O)ccc1OCC1(O)CC(F)(F)C1 |  |
| 9.1 | 9.6 | COc1cc(-n2cnn3cc(-c4ccc(Cl)cn4)cc3c2=O)ccc1N1CC[C@@H](O)C1 |  |
| 6.5 | 6.5 | COc1cc(-n2cnn3cc(-c4ccc(Cl)cn4)cc3c2=O)ccc1OCC1(O)CC(F)(F)C1 |  |
|  | 1.4 | COc1cc(-n2cnn3cc(-c4ccc(Cl)cc4)cc3c2=O)ccc1OCC(C)O (centres undefined) |  |
| 13 | 13 | COc1cc(-n2cnn3nc(-c4ccc(Cl)cc4)cc3c2=O)ccc1OCC(O)C1CC1 (centres undefined) |  |
| 17 | 15 | COc1cc(-n2cnn3cc(-c4ncc(Cl)cn4)cc3c2=O)ccc1OCC(O)C1CC1 (centres undefined) |  |
| 26 | 18 | COc1cc(-n2cnn3cc(-c4ccc(Cl)cc4)nc3c2=O)ccc1OCC(O)C1CC1 (centres undefined) |  |
|  |  | CCS(=O)(=O)C[C@H](COc1ccc(-n2cnn3cc(-c4ccc(Cl)cc4)cc3c2=O)cc1OC)OC(=O)CN | concentration [24]: 1830 nM; concentration [25]: 175 nM; BPR [26]: 0.1 |
